In US12076304B2, “Compositions comprising 15-HEPE and methods of treating or preventing hematologic disorders, and/or related diseases” (priority 2020, dated 2024):
“Also recorded” adds a separate entry of the source.

Tests used:
NAFLD patients = assay: Phase IIa study in NAFLD patients: OWL liver care test; type: in vivo, human
Excerpt: The study was planned to include 96 evaluable patients with 32 patients randomized per treatment group.
OWL Liver Care is a test that was developed based on the plasma lipidomics in biopsy-confirmed NASH patients and provides high predictive values. OWL Liver Care has an area under the curve (AUC) of 0.88 for distinguishing NAFLD and normal liver patients and an AUC of 0.79 for distinguishing NAFLD without steatohepatitis and NASH patients.

TIMP-1 mRNA = assay: BDL mice liver quantitative RT-PCR, TIMP-1; type: in vivo; conditions: for TIMP-1 relative mRNA expression level: BDL mice liver, normalized to 36B4, Sham 1.00, mean ± SD
Procedure: (§1) Quantitative RT-PCR: Total ribonucleic acid (RNA) was extracted from liver samples using RNAiso (Takara Bio, Japan) according to the manufacturer's instructions. One μg of RNA was reverse-transcribed using a reaction mixture containing 4.4 mM magnesium chloride (MgCl2) (F. Hoffmann-La Roche, Switzerland), 40 U RNase inhibitor (Toyobo, Japan), 0.5 mM dNTP (Promega, USA), 6.28 μM random hexamer (Promega), 5× first strand buffer (Promega), 10 mM dithiothreitol (Invitrogen, USA) and 200 U MMLV-RT (Invitrogen) in a final volume of 20 μL. The reaction was carried out for 1 hour at 37° C., followed by 5 minutes at 99° C. Real-time PCR was performed using real-time PCR DICE and TB Green™ Premix Ex Taq™ II (Takara Bio). To calculate the relative mRNA expression level, the expression of each gene (α-SMA, TIMP-1, TGF-β and Collagen Type 1) was normalized to that of reference gene 36B4 (gene symbol: Rplp0). Information regarding the PCR-primer sets and the plate layout are described in Tables 8 and 9.

α-SMA mRNA = assay: BDL mice liver quantitative RT-PCR, Alpha-SMA; type: in vivo; conditions: for Alpha-SMA relative mRNA expression level: BDL mice liver, normalized to 36B4, Sham 1.00, mean ± SD
Procedure: as §1

[1] = 1 g per day, baseline diagnosis NASH (19 at baseline)
[2] = 1 g per day, baseline diagnosis No NAFLD (4 at baseline)
[3] = 1 g per day, baseline diagnosis Steatosis (5 at baseline)
[4] = 2 g per day, baseline diagnosis NASH (12 at baseline)
[5] = 2 g per day, baseline diagnosis No NAFLD (3 at baseline)
[6] = 2 g per day, baseline diagnosis Steatosis (14 at baseline)
[7] = BDL mice, 500 mg/kg PO QD Day 0-13, 500 mg/kg
[8] = BDL mice, DS102 treatment groups as a whole

15-HEPE [DS102]
OWL test Change in Diagnosis (Week 16 vs. baseline): Improvement, patients (NAFLD patients; [1]): 5 | OWL test Change in Diagnosis (Week 16 vs. baseline): Stable, patients (NAFLD patients; [1]): 14 | OWL test Change in Diagnosis (Week 16 vs. baseline): Stable, patients (NAFLD patients; [2]): 3 | OWL test Change in Diagnosis (Week 16 vs. baseline): Worsening, patients (NAFLD patients; [2]): 1 | OWL test Change in Diagnosis (Week 16 vs. baseline): Stable, patients (NAFLD patients; [3]): 2 | OWL test Change in Diagnosis (Week 16 vs. baseline): Worsening, patients (NAFLD patients; [3]): 3 | OWL test Change in Diagnosis (Week 16 vs. baseline): Improvement, patients (NAFLD patients; [4]): 5 | OWL test Change in Diagnosis (Week 16 vs. baseline): Stable, patients (NAFLD patients; [4]): 7 | OWL test Change in Diagnosis (Week 16 vs. baseline): Stable, patients (NAFLD patients; [5]): 2*, ** | OWL test Change in Diagnosis (Week 16 vs. baseline): Worsening, patients (NAFLD patients; [5]): 1 | OWL test Change in Diagnosis (Week 16 vs. baseline): Improvement, patients (NAFLD patients; [6]): 1 | OWL test Change in Diagnosis (Week 16 vs. baseline): Stable, patients (NAFLD patients; [6]): 9 | OWL test Change in Diagnosis (Week 16 vs. baseline): Worsening, patients (NAFLD patients; [6]): 4 | OWL liver care diagnosed NASH (NAFLD patients; NAFLD patients, dose dependent, vs placebo at Week 16): significantly improved and normalized | TIMP-1 relative mRNA expression level (TIMP-1 mRNA; 50 mg/kg PO QD Day 0-13): 43.82 ± 26.19 | TIMP-1 relative mRNA expression level (TIMP-1 mRNA; 250 mg/kg PO QD Day 0-13): 30.65 ± 16.80 | TIMP-1 relative mRNA expression level (TIMP-1 mRNA; 500 mg/kg PO QD Day 0-13): 16.09 ± 10.16 | TIMP-1 mRNA expression level compared with the Vehicle group (TIMP-1 mRNA; [7]): tended to decrease; also recorded: trend approaching significance | TIMP-1 mRNA expression level, Vehicle group vs the DS102 treatment groups (TIMP-1 mRNA; [8]): no significant differences | Alpha-SMA relative mRNA expression level (α-SMA mRNA; 50 mg/kg PO QD Day 0-13): 3.21 ± 1.67 | Alpha-SMA relative mRNA expression level (α-SMA mRNA; 250 mg/kg PO QD Day 0-13): 2.66 ± 1.33 | Alpha-SMA relative mRNA expression level (α-SMA mRNA; 500 mg/kg PO QD Day 0-13): 1.42 ± 0.75 | α-SMA mRNA expression level compared with the Vehicle group (α-SMA mRNA; [7]): tended to decrease; also recorded: trend approaching significance | α-SMA mRNA expression level, Vehicle group vs the DS102 treatment groups (α-SMA mRNA; [8]): no significant differences
